Measurements as given in ChEMBL document CHEMBL5131502, “Improving the treatment of Parkinson's disease: Structure-based development of novel 5-HT2A receptor antagonists/inverse agonists” (Eur J Med Chem, 2022).
Converted amounts (≈) assume the structure as drawn.

Columns and labels:
[1] = Drug distribution in Sprague-Dawley rat brain at 6 micromol/kg administered via gavage measured after 0.5 hr by LC-MS/MS analysis; type: ADME, tissue-based; settings: in vivo, po, dose 6 µmol/kg
Cytochrome P450 2D6 = Cytochrome P450 2D6 (Homo sapiens, UniProt P10635); test: Inhibition of CYP2D6 (unknown origin); type: ADME
Sequence of Cytochrome P450 2D6 (P10635 whole entry): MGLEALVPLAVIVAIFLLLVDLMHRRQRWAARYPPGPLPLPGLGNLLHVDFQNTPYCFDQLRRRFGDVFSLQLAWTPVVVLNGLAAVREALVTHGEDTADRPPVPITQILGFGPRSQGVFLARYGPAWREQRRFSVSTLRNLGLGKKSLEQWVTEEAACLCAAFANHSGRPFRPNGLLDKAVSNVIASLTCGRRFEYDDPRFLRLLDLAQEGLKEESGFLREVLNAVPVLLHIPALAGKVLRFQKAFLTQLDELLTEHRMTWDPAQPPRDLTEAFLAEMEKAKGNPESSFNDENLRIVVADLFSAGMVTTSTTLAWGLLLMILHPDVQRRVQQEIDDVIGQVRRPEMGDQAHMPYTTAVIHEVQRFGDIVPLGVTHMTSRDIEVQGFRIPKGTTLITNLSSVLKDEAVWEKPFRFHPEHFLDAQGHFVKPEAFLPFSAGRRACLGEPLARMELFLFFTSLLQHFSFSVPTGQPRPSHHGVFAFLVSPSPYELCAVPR

[2] = Plasma protein binding in monkey at 10 uM; type: ADME, cell-free, Macaca mulatta; settings: rhesus monkey, read-out: PPB (converted)
[3] = target: 5-hydroxytryptamine receptor 2B (Homo sapiens, UniProt P41595); test: Displacement of [3H]-LSD from human 5-HT2B receptor at 25 uM incubated for 1 hr by microbeta2 beta-counter analysis
Sequence of 5-hydroxytryptamine receptor 2B (P41595 whole entry): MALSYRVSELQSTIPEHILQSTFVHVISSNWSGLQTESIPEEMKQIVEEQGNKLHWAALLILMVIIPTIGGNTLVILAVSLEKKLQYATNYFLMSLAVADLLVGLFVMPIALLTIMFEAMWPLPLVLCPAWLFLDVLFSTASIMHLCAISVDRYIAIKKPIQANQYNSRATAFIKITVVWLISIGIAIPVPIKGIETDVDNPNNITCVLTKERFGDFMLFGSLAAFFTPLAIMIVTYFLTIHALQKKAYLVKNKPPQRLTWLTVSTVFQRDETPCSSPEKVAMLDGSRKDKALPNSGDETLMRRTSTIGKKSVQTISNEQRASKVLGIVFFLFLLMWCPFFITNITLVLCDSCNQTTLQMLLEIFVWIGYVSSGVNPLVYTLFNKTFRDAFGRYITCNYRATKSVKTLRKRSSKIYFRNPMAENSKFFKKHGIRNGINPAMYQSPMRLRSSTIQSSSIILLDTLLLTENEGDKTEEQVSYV

[4] = Metabolic stability in dog liver microsomes assessed as compound remaining at 100 uM […] followed by NADPH addition by LC/MS analysis; type: ADME, Canis lupus familiaris, Microsome; settings: read-out: Stability
[5] = Metabolic stability in Sprague-Dawley rat liver microsomes assessed as half life at 100 uM preincubated for 10 mins followed by NADPH addition by LC/MS analysis; type: ADME, Microsome
[6] = target: Voltage-gated inwardly rectifying potassium channel KCNH2 (Homo sapiens, UniProt Q12809); test: Inhibition of hERG potassium channel expressed in CHO cells at -80 mV holding potential by whole cell patch clamp assay; type: toxicity, cell-based
Sequence of Voltage-gated inwardly rectifying potassium channel KCNH2 (Q12809 whole entry): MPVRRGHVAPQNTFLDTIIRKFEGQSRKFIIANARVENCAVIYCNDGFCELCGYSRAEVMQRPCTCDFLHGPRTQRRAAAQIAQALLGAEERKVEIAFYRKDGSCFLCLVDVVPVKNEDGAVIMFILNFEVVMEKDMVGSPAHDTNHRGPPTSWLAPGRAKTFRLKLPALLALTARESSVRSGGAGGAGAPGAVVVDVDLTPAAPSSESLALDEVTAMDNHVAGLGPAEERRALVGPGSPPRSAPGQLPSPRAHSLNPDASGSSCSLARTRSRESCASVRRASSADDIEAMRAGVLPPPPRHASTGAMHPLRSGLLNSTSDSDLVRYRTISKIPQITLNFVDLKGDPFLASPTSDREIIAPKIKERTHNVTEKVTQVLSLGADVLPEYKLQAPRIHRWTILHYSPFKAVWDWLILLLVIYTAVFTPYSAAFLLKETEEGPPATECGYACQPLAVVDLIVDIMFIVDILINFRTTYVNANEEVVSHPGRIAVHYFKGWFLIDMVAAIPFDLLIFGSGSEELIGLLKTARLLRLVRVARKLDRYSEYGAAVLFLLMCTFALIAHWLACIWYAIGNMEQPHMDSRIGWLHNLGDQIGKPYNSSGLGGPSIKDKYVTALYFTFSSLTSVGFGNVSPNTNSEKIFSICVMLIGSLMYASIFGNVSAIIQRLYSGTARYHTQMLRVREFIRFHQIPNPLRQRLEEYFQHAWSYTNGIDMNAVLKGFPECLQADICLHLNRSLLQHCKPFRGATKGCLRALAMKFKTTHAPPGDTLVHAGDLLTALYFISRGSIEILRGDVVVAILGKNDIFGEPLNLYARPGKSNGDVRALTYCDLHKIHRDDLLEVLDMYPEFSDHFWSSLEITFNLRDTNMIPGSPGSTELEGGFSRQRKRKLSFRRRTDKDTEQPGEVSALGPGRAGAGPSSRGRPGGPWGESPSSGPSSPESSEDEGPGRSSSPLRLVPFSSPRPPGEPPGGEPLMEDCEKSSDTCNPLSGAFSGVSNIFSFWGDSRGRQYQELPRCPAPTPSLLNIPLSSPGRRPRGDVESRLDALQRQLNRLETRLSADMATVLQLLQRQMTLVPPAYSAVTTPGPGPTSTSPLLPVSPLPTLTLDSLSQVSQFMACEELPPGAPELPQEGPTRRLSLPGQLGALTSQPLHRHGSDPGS

[7] = target: T1, 5-hydroxytryptamine receptor 2A (Homo sapiens, UniProt P28223); test: Displacement of [3H]-Ketanserin from human 5-HT2A receptor at 50 nM incubated for 1 hr by microbeta scintillation counter analysis
T1 sequence (P28223 whole entry): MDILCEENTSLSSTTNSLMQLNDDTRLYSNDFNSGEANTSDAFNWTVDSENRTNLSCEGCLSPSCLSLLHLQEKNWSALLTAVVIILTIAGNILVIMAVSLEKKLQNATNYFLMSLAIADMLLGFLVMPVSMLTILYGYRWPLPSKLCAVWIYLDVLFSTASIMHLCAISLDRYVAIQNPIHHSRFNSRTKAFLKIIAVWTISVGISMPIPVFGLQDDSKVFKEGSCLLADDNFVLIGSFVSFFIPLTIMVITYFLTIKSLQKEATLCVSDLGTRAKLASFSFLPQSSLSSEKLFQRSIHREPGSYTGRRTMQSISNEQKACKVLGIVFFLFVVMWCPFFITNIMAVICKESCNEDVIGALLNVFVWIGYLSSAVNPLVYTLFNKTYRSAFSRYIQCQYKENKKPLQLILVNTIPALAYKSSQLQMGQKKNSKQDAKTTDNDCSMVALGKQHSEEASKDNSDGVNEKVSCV

[8] = Metabolic stability in human liver microsomes assessed as compound remaining at 100 uM […] followed by NADPH addition by LC/MS analysis; type: ADME, Microsome; settings: read-out: Stability
[9] = Toxicity in Sprague-Dawley rat assessed as apparent adverse effect at 20 to 60 mg/kg, po administered daily via gavage measured for 7 days; type: organism-based; settings: in vivo, 168 h, dose 20-60 mg/kg, time 7 day
[10] = Genotoxicity in Salmonella typhimurium TA102 in presence of rat liver S9 fraction by Ames test; type: toxicity, subcellular; settings: salmonella enterica subsp. enterica serovar typhimurium
[11] = Metabolic stability in human liver microsomes assessed as intrinsic clearance at 100 uM preincubated for 10 mins followed by NADPH addition by LC/MS analysis; type: ADME, Microsome; settings: read-out: CLH
[12] = Metabolic stability in Sprague-Dawley rat liver microsomes assessed as intrinsic clearance at 100 uM preincubated for 10 mins followed by NADPH addition by LC/MS analysis; type: ADME, Microsome; settings: read-out: CLH
[13] = Metabolic stability in Sprague-Dawley rat liver microsomes assessed as compound remaining at 100 uM […] followed by NADPH addition by LC/MS analysis; type: ADME, Microsome; settings: read-out: Stability
[14] = Genotoxicity in Salmonella typhimurium TA102 in absence of rat liver S9 fraction by Ames test; type: toxicity; settings: salmonella enterica subsp. enterica serovar typhimurium
[15] = Aqueous solubility of compound at pH 7.4; type: physicochemical
[16] = Dissociation constant, pKa of the compound; type: physicochemical
[17] = Genotoxicity in Salmonella typhimurium TA1535 in presence of rat liver S9 fraction by Ames test; type: toxicity, subcellular; settings: salmonella enterica subsp. enterica serovar typhimurium
[18] = Genotoxicity in Salmonella typhimurium TA98 in absence of rat liver S9 fraction by Ames test; type: toxicity; settings: salmonella enterica subsp. enterica serovar typhimurium
[19] = Plasma protein binding in rat at 10 uM; type: ADME, cell-free; settings: read-out: PPB (converted)
Cytochrome P450 2C19 = Cytochrome P450 2C19 (Homo sapiens, UniProt P33261); test: Inhibition of CYP2C19 (unknown origin); type: ADME
Sequence of Cytochrome P450 2C19 (P33261 whole entry): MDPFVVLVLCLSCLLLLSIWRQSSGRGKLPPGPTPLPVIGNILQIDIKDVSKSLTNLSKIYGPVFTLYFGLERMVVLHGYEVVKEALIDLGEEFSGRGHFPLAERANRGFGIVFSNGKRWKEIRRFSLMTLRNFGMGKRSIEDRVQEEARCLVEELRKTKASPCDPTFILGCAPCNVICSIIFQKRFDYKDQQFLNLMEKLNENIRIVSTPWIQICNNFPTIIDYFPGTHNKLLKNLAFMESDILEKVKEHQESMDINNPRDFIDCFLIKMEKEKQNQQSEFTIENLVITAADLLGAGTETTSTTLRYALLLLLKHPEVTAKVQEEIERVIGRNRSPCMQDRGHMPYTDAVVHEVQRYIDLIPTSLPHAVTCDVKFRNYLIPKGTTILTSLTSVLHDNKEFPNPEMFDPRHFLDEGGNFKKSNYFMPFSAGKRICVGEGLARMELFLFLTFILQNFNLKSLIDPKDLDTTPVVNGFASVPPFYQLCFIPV

Cytochrome P450 1A2 = target: T2, Cytochrome P450 1A2 (Homo sapiens, UniProt P05177); test: Inhibition of CYP1A2 (unknown origin); type: ADME
T2 sequence (P05177 whole entry): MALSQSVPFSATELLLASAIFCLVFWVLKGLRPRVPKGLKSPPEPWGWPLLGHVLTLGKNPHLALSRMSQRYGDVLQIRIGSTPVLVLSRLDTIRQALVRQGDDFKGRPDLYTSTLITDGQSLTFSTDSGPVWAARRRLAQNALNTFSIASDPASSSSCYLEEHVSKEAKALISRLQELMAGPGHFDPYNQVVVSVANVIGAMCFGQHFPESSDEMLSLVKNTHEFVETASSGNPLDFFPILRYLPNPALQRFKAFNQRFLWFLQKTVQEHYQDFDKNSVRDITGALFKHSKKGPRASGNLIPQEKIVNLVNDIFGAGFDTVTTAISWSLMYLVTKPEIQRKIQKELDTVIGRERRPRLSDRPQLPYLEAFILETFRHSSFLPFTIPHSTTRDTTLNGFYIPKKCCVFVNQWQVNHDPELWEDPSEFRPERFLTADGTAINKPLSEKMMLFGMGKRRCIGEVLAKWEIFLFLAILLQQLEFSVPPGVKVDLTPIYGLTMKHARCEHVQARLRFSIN

Cytochrome P450 3A4 = Cytochrome P450 3A4 (Homo sapiens, UniProt P08684); test: Inhibition of CYP3A4 (unknown origin); type: ADME
Sequence of Cytochrome P450 3A4 (P08684 whole entry): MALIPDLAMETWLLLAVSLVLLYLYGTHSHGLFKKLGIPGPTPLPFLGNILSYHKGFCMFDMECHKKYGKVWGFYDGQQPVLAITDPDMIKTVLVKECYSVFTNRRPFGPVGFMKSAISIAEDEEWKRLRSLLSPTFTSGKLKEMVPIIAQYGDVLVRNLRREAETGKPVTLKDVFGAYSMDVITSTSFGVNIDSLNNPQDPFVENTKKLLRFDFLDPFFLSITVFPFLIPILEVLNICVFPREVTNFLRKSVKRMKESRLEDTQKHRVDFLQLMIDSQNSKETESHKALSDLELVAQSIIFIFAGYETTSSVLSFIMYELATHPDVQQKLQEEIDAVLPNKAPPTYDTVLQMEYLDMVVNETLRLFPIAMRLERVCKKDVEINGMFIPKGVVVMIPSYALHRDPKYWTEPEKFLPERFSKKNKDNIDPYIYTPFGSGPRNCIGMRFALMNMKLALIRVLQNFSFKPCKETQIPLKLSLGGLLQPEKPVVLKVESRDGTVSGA

[20] = Drug distribution in Sprague-Dawley rat brain at 6 micromol/kg administered via gavage measured after 6 hrs by LC-MS/MS analysis; type: ADME, tissue-based; settings: in vivo, po, dose 6 µmol/kg
[21] = Genotoxicity in Salmonella typhimurium TA98 in presence of rat liver S9 fraction by Ames test; type: toxicity, subcellular; settings: salmonella enterica subsp. enterica serovar typhimurium
[22] = Toxicity in Sprague-Dawley rat assessed as animal death at 20 to 60 mg/kg, po administered daily via gavage measured for 7 days; type: organism-based; settings: in vivo, 168 h, dose 20-60 mg/kg, time 7 day
[23] = Plasma protein binding in human at 10 uM; type: ADME, cell-free; settings: read-out: PPB (converted)
[24] = Genotoxicity in Salmonella typhimurium TA1535 in absence of rat liver S9 fraction by Ames test; type: toxicity; settings: salmonella enterica subsp. enterica serovar typhimurium
[25] = Genotoxicity in Salmonella typhimurium TA97 in presence of rat liver S9 fraction by Ames test; type: toxicity, subcellular; settings: salmonella enterica subsp. enterica serovar typhimurium
[26] = Metabolic stability in human liver microsomes assessed as half life at 100 uM preincubated for 10 mins followed by NADPH addition by LC/MS analysis; type: ADME, Microsome
Cytochrome P450 2C9 = Cytochrome P450 2C9 (Homo sapiens, UniProt P11712); test: Inhibition of CYP2C9 (unknown origin); type: ADME
Sequence of Cytochrome P450 2C9 (P11712 whole entry): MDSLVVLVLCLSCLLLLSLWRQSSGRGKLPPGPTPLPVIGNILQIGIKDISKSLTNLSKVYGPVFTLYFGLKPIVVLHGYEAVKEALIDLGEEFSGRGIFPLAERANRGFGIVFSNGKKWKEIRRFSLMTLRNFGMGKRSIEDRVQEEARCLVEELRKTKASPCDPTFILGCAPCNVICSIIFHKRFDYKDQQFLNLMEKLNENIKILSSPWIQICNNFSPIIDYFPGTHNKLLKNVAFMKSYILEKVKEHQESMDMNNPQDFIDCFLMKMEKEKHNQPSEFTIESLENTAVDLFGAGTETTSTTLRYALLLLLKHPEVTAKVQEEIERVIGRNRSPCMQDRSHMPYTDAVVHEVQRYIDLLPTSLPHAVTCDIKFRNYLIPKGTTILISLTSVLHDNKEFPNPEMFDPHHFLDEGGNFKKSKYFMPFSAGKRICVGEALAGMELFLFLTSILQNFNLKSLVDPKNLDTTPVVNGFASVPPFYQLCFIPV

[27] = target: T1, 5-hydroxytryptamine receptor 2A; test: Inverse agonist activity at 5-HT2A receptor (unknown origin) expressed in mouse NIH3T3 cells using o-nitrophenyl-D-galacto pyranoside incubated for 120 hrs; type: functional, cell-based
[28] = Lipophilicity, logD of the compound at pH 7.4; type: physicochemical; settings: buffer
[29] = Genotoxicity in Salmonella typhimurium TA100 in presence of rat liver S9 fraction by Ames test; type: toxicity, subcellular; settings: salmonella enterica subsp. enterica serovar typhimurium
[30] = Drug distribution in Sprague-Dawley rat brain at 6 micromol/kg administered via gavage measured after 2 hrs by LC-MS/MS analysis; type: ADME, tissue-based; settings: in vivo, po, dose 6 µmol/kg
[31] = Genotoxicity in Salmonella typhimurium TA100 in absence of rat liver S9 fraction by Ames test; type: toxicity; settings: salmonella enterica subsp. enterica serovar typhimurium
[32] = target: T3, 5-hydroxytryptamine receptor 2C (Homo sapiens, UniProt P28335); test: Displacement of [3H]- Mesulergine from human 5-HT2C receptor at 300 nM incubated for 1 hr by microbeta2 beta-counter analysis
T3 sequence (P28335 whole entry): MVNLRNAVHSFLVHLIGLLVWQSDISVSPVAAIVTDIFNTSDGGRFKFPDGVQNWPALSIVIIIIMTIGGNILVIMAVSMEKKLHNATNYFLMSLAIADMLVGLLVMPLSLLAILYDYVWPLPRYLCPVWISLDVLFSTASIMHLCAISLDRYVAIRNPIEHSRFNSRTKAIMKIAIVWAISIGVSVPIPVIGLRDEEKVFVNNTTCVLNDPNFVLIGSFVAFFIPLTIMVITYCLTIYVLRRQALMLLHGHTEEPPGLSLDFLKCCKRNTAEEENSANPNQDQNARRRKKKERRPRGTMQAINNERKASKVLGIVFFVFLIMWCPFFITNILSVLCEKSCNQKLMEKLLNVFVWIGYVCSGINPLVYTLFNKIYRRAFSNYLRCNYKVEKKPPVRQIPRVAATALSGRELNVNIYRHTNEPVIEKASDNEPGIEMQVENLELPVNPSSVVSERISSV

[33] = Genotoxicity in Salmonella typhimurium TA97 in absence of rat liver S9 fraction by Ames test; type: toxicity; settings: salmonella enterica subsp. enterica serovar typhimurium

Compound: CN1CCC(N(Cc2ccc(F)cn2)C(=O)NCc2ccc(OCC(F)(F)F)cc2)CC1
- Ct [1]: 120 nmol/kg
- IC50 (Cytochrome P450 2D6): > 100000 nM
- fraction unbound at 10 µM [2]: 0.383
- Ki [3]: 139 nM
- remaining at 100 µM [4]: 76.4%
- half-life at 100 µM [5]: 1.72 h
- IC50 [6]: 1100 nM
- Ki [7]: 0.2 nM
- remaining at 100 µM [8]: 89.2%
- Activity [9]: Non-Toxic
- Activity [10]: Non-Toxic
- CLint scaled at 100 µM [11]: < 6.7 mL/min/kg
- CLint scaled at 100 µM [12]: 34.1 mL/min/kg
- remaining at 100 µM [13]: 66.5%
- Activity [14]: Non-Toxic
- solubility [15]: 710 µg/mL (≈ 1560 µM)
- pKa [16]: 8.51
- Activity [17]: Non-Toxic
- Activity [18]: Non-Toxic
- fraction unbound at 10 µM [19]: 0.418
- IC50 (Cytochrome P450 2C19): 62900 nM
- IC50 (Cytochrome P450 1A2): 8500 nM
- IC50 (Cytochrome P450 3A4): > 100000 nM
- Ct [20]: 100 nmol/kg
- Activity [21]: Non-Toxic
- Activity [22]: Non-Toxic
- fraction unbound at 10 µM [23]: 0.309
- Activity [24]: Non-Toxic
- Activity [25]: Non-Toxic
- half-life at 100 µM [26]: > 3.1 h
- IC50 (Cytochrome P450 2C9): > 100000 nM
- IC50 [27]: 2.1 nM
- logD [28]: 1.97
- Activity [29]: Non-Toxic
- Ct [30]: 164 nmol/kg
- Activity [31]: Non-Toxic
- Ki [32]: 2 nM
- Activity [33]: Non-Toxic
